# Data: PubChem BioAssay AID2060500 (Molecular Pharmacology Branch, DTP, NCI, 2025)
# Tested on: 596521-263-R-J1-PDC complex spheroids, viability % of control
# Experiment: Anticancer human tumor 596521-263-R-J1-PDC patient-derived soft tissue sarcoma cell line growth inhibition [GQUAD]
# Details: for IC50: curve of first compound; for viability, T/C: stronger effect = lower value
# Procedure, shortened: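 Tumor cells were grown as complex spheroids with HUVEC endothelial cells and mesenchymal stem cells as stroma. G-quadruplex stabilizers were combined with targeted agents over half-log dilutions from near the clinical Cmax, or from 10 microM.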
# [1] = second compound 0.0316 µM, first compound 0.0316 µM
# [2] = second compound 0.0316 µM, first compound 0.1 µM
# [3] = second compound 0.0316 µM, first compound 0.316 µM
# [4] = second compound 0.0316 µM, first compound 1 µM
# [5] = second compound 0.0316 µM, first compound 3.16 µM
# [6] = second compound 0.0316 µM, first compound 10 µM
# [7] = second compound 0.1 µM, first compound 0.0316 µM
# [8] = second compound 0.1 µM, first compound 0.1 µM
# [9] = second compound 0.1 µM, first compound 0.316 µM
# [10] = second compound 0.1 µM, first compound 1 µM
# [11] = second compound 0.1 µM, first compound 3.16 µM
# [12] = second compound 0.1 µM, first compound 10 µM
# [13] = second compound 0.316 µM, first compound 0.0316 µM
# [14] = second compound 0.316 µM, first compound 0.1 µM
# [15] = second compound 0.316 µM, first compound 0.316 µM
# [16] = second compound 0.316 µM, first compound 1 µM
# [17] = second compound 0.316 µM, first compound 3.16 µM
# [18] = second compound 0.316 µM, first compound 10 µM
# [19] = second compound 1 µM, first compound 0.0316 µM
# [20] = second compound 1 µM, first compound 0.1 µM
# [21] = second compound 1 µM, first compound 0.316 µM
# [22] = second compound 1 µM, first compound 1 µM
# [23] = second compound 1 µM, first compound 3.16 µM
# [24] = second compound 1 µM, first compound 10 µM
# [25] = second compound 3.16 µM, first compound 0.0316 µM
# [26] = second compound 3.16 µM, first compound 0.1 µM
# [27] = second compound 3.16 µM, first compound 0.316 µM
# [28] = second compound 3.16 µM, first compound 1 µM
# [29] = second compound 3.16 µM, first compound 3.16 µM
# [30] = second compound 3.16 µM, first compound 10 µM
# [31] = second compound 10 µM, first compound 0.0316 µM
# [32] = second compound 10 µM, first compound 0.1 µM
# [33] = second compound 10 µM, first compound 0.316 µM
# [34] = second compound 10 µM, first compound 1 µM
# [35] = second compound 10 µM, first compound 3.16 µM
# [36] = second compound 10 µM, first compound 10 µM
# 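Note: spheroids exposed to drugs for 7 days before viability reading.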
# 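Throughout, for viability, T/C: 100% = DMSO vehicle control viability.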
structure (smiles),measurement,setting,value
CC(C)(O)C1CCC(Nc2ccc3ncc(-c4cccc(C(F)(F)F)c4)n3n2)CC1 (centres undefined) + Cc1cnc(CNC(=O)c2c(=O)c3ccc(N4CCCN(C)CC4)nc3n3c2sc2ccccc23)cn1,IC50,second compound 0.0316 µM,1720 nM
same,IC50,second compound 0.1 µM,1320 nM
same,IC50,second compound 0.316 µM,1010 nM
same,IC50,second compound 1 µM,830 nM
same,IC50,second compound 3.16 µM,< 31.6 nM
same,IC50,second compound 10 µM,< 31.6 nM
same,"viability, T/C",[1],89.8%
same,"viability, T/C",[2],82.3%
same,"viability, T/C",[3],88.3%
same,"viability, T/C",[4],77.7%
same,"viability, T/C",[5],18.8%
same,"viability, T/C",[6],14.4%
same,"viability, T/C",[7],81.9%
same,"viability, T/C",[8],79.9%
same,"viability, T/C",[9],74.2%
same,"viability, T/C",[10],59.5%
same,"viability, T/C",[11],20.5%
same,"viability, T/C",[12],18.2%
same,"viability, T/C",[13],72.3%
same,"viability, T/C",[14],69.5%
same,"viability, T/C",[15],68.6%
same,"viability, T/C",[16],50.5%
same,"viability, T/C",[17],18.4%
same,"viability, T/C",[18],15.9%
same,"viability, T/C",[19],57.6%
same,"viability, T/C",[20],53.6%
same,"viability, T/C",[21],63.1%
same,"viability, T/C",[22],47.8%
same,"viability, T/C",[23],21.7%
same,"viability, T/C",[24],15.1%
same,"viability, T/C",[25],46.6%
same,"viability, T/C",[26],46.5%
same,"viability, T/C",[27],51.7%
same,"viability, T/C",[28],45.2%
same,"viability, T/C",[29],0.12%
same,"viability, T/C",[30],0.13%
same,"viability, T/C",[31],33.3%
same,"viability, T/C",[32],13.8%
same,"viability, T/C",[33],41.2%
same,"viability, T/C",[34],0.19%
same,"viability, T/C",[35],0.23%
same,"viability, T/C",[36],0.18%
CC(=O)O[C@H]1C(=O)[C@@]2(C)[C@H]([C@H](OC(=O)c3ccccc3)[C@]3(O)C[C@H](OC(=O)[C@H](O)[C@@H](NC(=O)c4ccccc4)c4ccccc4)C(C)=C1C3(C)C)[C@]1(OC(C)=O)CO[C@@H]1C[C@@H]2O + Cc1cnc(CNC(=O)c2c(=O)c3ccc(N4CCCN(C)CC4)nc3n3c2sc2ccccc23)cn1,IC50,second compound 0.0316 µM,< 31.6 nM
same,IC50,second compound 0.1 µM,< 31.6 nM
same,IC50,second compound 0.316 µM,< 31.6 nM
same,IC50,second compound 1 µM,< 31.6 nM
same,IC50,second compound 3.16 µM,< 31.6 nM
same,IC50,second compound 10 µM,< 31.6 nM
same,"viability, T/C",[1],44%
same,"viability, T/C",[2],30.7%
same,"viability, T/C",[3],23.5%
same,"viability, T/C",[4],27.8%
same,"viability, T/C",[5],25.9%
same,"viability, T/C",[6],28%
same,"viability, T/C",[7],43.7%
same,"viability, T/C",[8],25.2%
same,"viability, T/C",[9],28.9%
same,"viability, T/C",[10],28.8%
same,"viability, T/C",[11],29.3%
same,"viability, T/C",[12],28.9%
same,"viability, T/C",[13],38.5%
same,"viability, T/C",[14],30.4%
same,"viability, T/C",[15],25.1%
same,"viability, T/C",[16],28.1%
same,"viability, T/C",[17],29%
same,"viability, T/C",[18],30.8%
same,"viability, T/C",[19],36.5%
same,"viability, T/C",[20],32.5%
same,"viability, T/C",[21],28.5%
same,"viability, T/C",[22],27.9%
same,"viability, T/C",[23],27.7%
same,"viability, T/C",[24],31.1%
same,"viability, T/C",[25],35.4%
same,"viability, T/C",[26],28.1%
same,"viability, T/C",[27],24.5%
same,"viability, T/C",[28],25.5%
same,"viability, T/C",[29],27.6%
same,"viability, T/C",[30],32.2%
same,"viability, T/C",[31],7.69%
same,"viability, T/C",[32],8.44%
same,"viability, T/C",[33],7.94%
same,"viability, T/C",[34],7.65%
same,"viability, T/C",[35],0.28%
same,"viability, T/C",[36],0.22%
